From patent US10213428B2, “(4-((3R,4R)-3-methoxytetrahydro-pyran-4-ylamino)piperidin-1-yl)(5-methyl-6-(((2R,6S)-6-(p-tolyl)tetrahydro-2H-pyran-2-yl)methylamino)pyrimidin-4-yl)methanone citrate” (Centrexion Therapeutics Corporation, priority 2015, dated 2019)

Assays:
[1] = In vitro metabolic stability in hepatocyte incubations, human; type: in vitro ADME; conditions: hepatocytes (suspension); Human; predicted from hepatocyte CL intrinsic, well stirred model; read-out: CL, in vivo
Procedure: (§1) Metabolic degradation of the test compound is assayed in a hepatocyte suspension. Hepatocytes are incubated in an appropriate buffer system. Following a (typically) 30 min preincubation in an incubator (37° C., 10% CO2) 5 μL of test compound solution (1 μM) are added into 395 μL hepatocyte suspension (cell density in the range 0.25-5 Mio cells/mL, typically 1 Mio cells/mL, final DMSO concentration 0.05%). The cells are incubated for six hours (incubator, orbital shaker) and samples (25 μL) are taken at 0, 0.5, 1, 2, 4 and 6 hours. Samples are transferred into acetonitrile and pelleted by centrifugation (5 min). The supernatant is transferred to a new 96-deepwell plate, evaporated under nitrogen and resuspended. Decline of parent compound is analyzed by HPLC-MS/MS. CLint is calculated as follows CL_INTRINSIC=Dose/AUC=(CO/CD)/(AUD+clast/k)×1000/60. […]

hepatocytes [2] = test: as above; type: in vitro ADME; conditions: Human hepatocytes, 1 μM
Procedure: as §1

[3] = X-ray powder diffraction: crystallinity and polymorphism; type: physicochemical
Description: X-ray powder diagrams were generated using a STOE-STADI P-diffractometer in transmission mode fitted with a MYTHEN-detector and a Cu-anode as X-ray source with monochromatic CuKα1 radiation (λ=1.54056 Å, 40 kV, 40 mA).

plasma protein = test: In vitro plasma protein binding (equilibrium dialysis), mouse; type: in vitro ADME; conditions: 1.0 μM, dialysis 2 hours at 37° C.
Procedure: (§2) Dianorm Teflon dialysis cells (micro 0.2) are used. Each cell consists of a donor (i.e., buffer chamber) and an acceptor chamber (i.e., plasma chamber), separated by an ultrathin semipermeable membrane with a 5 kDa molecular weight cutoff. Stock solutions for each test compound are prepared in DMSO at 1 mM and diluted to a final concentration of 1.0 μM. Aliquots of 200 μL dialysis buffer (100 mM potassium phosphate, pH 7.4) are dispensed into the buffer chamber. Aliquots of 200 μL test compound dialysis solution are dispensed into the plasma chambers. Incubation is carried out for 2 hours under rotation at 37° C. Then, the dialysate is transferred into reaction tubes. The tubes for the buffer fraction contain 0.2 mL acetonitril/water (80/20 volume/volume). Aliquots of 25 μL of the plasma dialysate are transferred into deep well plates and mixed with 25 μL acetonitril/water (80/20 volume/volume), 25 μL buffer, 25 μL calibration solution and 25 μL Internal Standard solution. Protein precipitation is done by adding 200 μL acetonitrile. Aliquots of 50 μL of the buffer dialysate are transferred into deep well plates and mixed with 25 μL blank plasma, 25 μL Internal Standard solution and 200 μL acetonitril. Percent bound is calculated with the formula: % bound=(plasma concentration−buffer concentration/plasma concentration)×100.

[4] = as above; type: in vitro ADME; conditions: pH 7.4, dialysis 2 hours at 37° C., read-out: Fraction bound (converted)
Procedure: as §2

[5] = In vitro plasma protein binding (equilibrium dialysis), human; type: in vitro ADME; conditions: pH 7.4, dialysis 2 hours at 37° C., read-out: Fraction bound (converted)
Procedure: as §2

[6] = Intravenous pharmacokinetics in mouse; type: in vivo, BALB/c mice; conditions: IV dose 10 μmol/kg, mean values
Description: The pharmacokinetics of the test compound following single intravenous (IV) or oral (PO) doses were examined in • female BALB/c mice (average weight: 25 g) • male Wistar(Han) rats (average weight: 260 g) • male and female Göttingen Minipigs (average weight: 24 kg) • male beagle dogs (average weight: 15 kg) All non-rodent species were fasted overnight prior to dosing, while mice and rats had food and water available ad libitum. The p.o. dose of the compound was usually administered as suspension in 0.5% Natrosol or as a 0.5% Natrosol/0.015% Tween 80 suspension. For i.v. dosing purposes, the doses were applied as a solution in 0.9% NaCL, or as a solution containing 9.1% HP-beta Cyclodextrin in water.
Blood was collected by venous sampling and soaking of the blood in EDTA coated tubes. Samples were collected for up to 48 h after administration of the test compound. Plasma was then separated by centrifugation (5 min by approximately 9000 g at 4° C.). For determination of the test compound, plasma was transferred into PCR plates. All samples were stored at approximately −20° C. until bioanalytics. The test compound concentrations in plasma were determined by HPLC MS/MS. The lower limit of quantification was between 0.5 nmol/L and 1 nmol/L.

[7] = In vitro metabolic stability in hepatocyte incubations, mouse; type: in vitro ADME; conditions: hepatocytes (suspension); Mouse; predicted from hepatocyte CL intrinsic, well stirred model; read-out: CL, in vivo
Procedure: as §1

hepatocytes [8] = test: as above; type: in vitro ADME; conditions: Mouse hepatocytes, 1 μM
Procedure: as §1

[9] = female, BALB/c, plasma, 10 umol/kg

Structure (SMILES): CO[C@H]1COCC[C@H]1NC1CCN(C(=O)c2ncnc(NC[C@H]3CCC[C@@H](c4ccc(C)cc4)O3)c2C)CC1 [compound I, (4-((3R,4R)-3-methoxytetrahydro-pyran-4-ylamino)piperidin-1-yl)(5-methyl-6-(((2R,6S)-6-(p-tolyl)tetrahydro-2H-pyran-2-yl)methylamino)pyrimidin-4-yl)methanone]
- CLhep predicted at 1 μM [1]: 7.9 mL/min/kg
- CL intrinsic, in vitro (hepatocytes [2]): 4.11 μL/min/10e6 cells
- crystallinity [3]: amorphous material
- Fraction unbound (plasma protein): 4.9%
- fraction unbound at 2 h, 1 μM [4]: 0.049
- fraction unbound at 2 h, 1 μM [5]: 0.153
- MRTdisp [6]: 37.4 min
- AUC(0-inf) [6, 9]: 1.99 µM·h
- clearance [6, 9]: 86 mL/min/kg
- Vd ([6]; female, BALB/c, plasma, 10 umol/kg, read-out: Vss): 3.29 L/kg
- CLhep predicted at 1 μM [7]: 49 mL/min/kg
- CL intrinsic, in vitro (hepatocytes [8]): 16.4 μL/min/10e6 cells
